The structures appear in SMILES notation.

A short description of series [1]: Particle size distribution of the precipitate measured with a Malvern Mastersizer 2000. Format: physicochemical. The note with it: precipitated particles; for D50 of this batch / D90 of this batch: ethanol/water, Malvern Mastersizer 2000. The source says:
Preferably, the precipitated organic compound is in particulate form and has a D50 of less than 500 nm, more preferably less than 400 nm, even more preferably of less than 300 nm, and in particular less than 200 nm. The D50 can be measured by techniques known in the art, e.g. laser diffraction according to method ISO 13320-1 using e.g. a Malvern Mastersizer 2000 particle size analyser.
The particle size distribution is wide, including many particles of 10 μm edge length or more. […] The D50 of this batch is 14.59 μm. So 50% of all particles have a volume median size which is smaller than 14.59 μm. The D90 of this batch is 36.22 μm.
Particle size distribution was measured with a Malvern Mastersizer 2000. The D50 of this batch is 9.17 μm. The D90 of this batch is 18.72 μm. (FIG. 8)

Series [2] is described as follows: Saturation concentration in ethanol. In kind it is physicochemical. Particulars: 325 K.

As to `CC(=O)[C@H]1CC[C@H]2[C@@H]3CC=C4C[C@@H](O)CC[C@]4(C)[C@H]3CC[C@]12C` [Comparative Example 1, pregnenolone], in series [1], the “particle size distribution (shape, in words)” value (“particle size distribution” for short) was “wide”; the “D50 of this batch” value turned out to be 14.59 μm; the “D90 of this batch” value was determined as 36.22 μm.

On to `CC(=O)[C@H]1CC[C@H]2[C@@H]3CC=C4C[C@@H](O)CC[C@]4(C)[C@H]3CC[C@]12C` [Comparative Example 3, pregnenolone], for which, in series [1], the “particle size distribution” value is listed as “narrower particle size distribution than Comparative Example 2”; the “D50 of this batch” value turned out to be 9.17 μm; the “D90 of this batch” value worked out at 18.72 μm.

In the case of `CC(=O)[C@H]1CC[C@H]2[C@@H]3CC=C4C[C@@H](O)CC[C@]4(C)[C@H]3CC[C@]12C` [Inventive Example 1, pregnenolone], in series [1], the “particle size distribution” value is reported as “narrow”; the “D50 of this batch” value is given as 9.17 μm; the “D90 of this batch” value worked out at 18.72 μm.

`CC(=O)[C@H]1CC[C@H]2[C@@H]3CC=C4C[C@@H](O)CC[C@]4(C)[C@H]3CC[C@]12C` [pregnenolone]: the “saturation conc. in EtOH” value in series [2] is 34 g/L.
